Holding throughout (type): cell-based, human
The subject of one experiment is THP-1 cells. Description: CPA: neopterin production by stimulated THP-1 cells. Conditions: RPMI+10% FCS, 24 hrs, different concentrations. The source says:
(§1) The instructions of the manufacturers were followed. All these tests are enzyme immunoassays (EIA:s). The principle is that microtiter plate wells are labelled with a cytokine specific capture antibody. If cytokine is present in the samples added to the wells it will be captured to the bottom of the well. […] The reaction is thereafter measured as colour developed after addition of a substrate for the enzyme. The values for the test wells are compared with a standard curve obtained by adding a series of known amounts of cytokine. The values obtained for control wells with no substance added are used as background values for cytokine levels.
The cells were split approximately 1:3 the day before stimulation. The stimulation procedure was performed in three steps. The first step was pre-dilution of test substances, to double the final concentration, in cell culture medium. […] The number of cells was then determined by trypan blue exclusion and the cells were diluted to twice the final test concentration (2×10^6 cells/mL) if not otherwise indicated and 100 μl of cell suspension was added per well in 96 well tissue culture plates (Corning). […] The cell suspension was transferred to new cell culture plates and stored at −20° C. until analyzed. Thereafter the cell suspension was analyzed for presence of neopterin and IL-10 by ELISA (IBL-Hamburg) following the manufacturers instructions.

The test system of the next experiment is MonoMac-6 cells. Description: Cytokine Profile Assay (CPA): neopterin production by stimulated MonoMac-6 cells, ELISA. Conditions: for neopterin release (in words): chemicals, in the presence or absence of IFN-γ.
Source text: as §1
The myelomonocytic cell line MonoMac-6 (obtained from DSMZ, accession number ACC 124, Prof. H. W. L. Ziegler-Heitbrock, Inst. For Immunology, University of Munich, Munich) was cultured in cell culture flasks (Corning). Cells were cultured in RPMI 1640 medium (Gibco BRL), containing 20 mM HEPES and L-glutamine and supplemented with 10% heat-inactivated foetal bovine serum (Gibco BRL), penicillin (100 U/mL; Sigma-Aldrich), streptomycin (100 μg/mL; Sigma-Aldrich), sodium pyruvate (1.0 mM;Gibco BRL), human insulin (9 μg/mL; Gibco BRL) and non-essential amino acids (Gibco BRL) or cultured in Panserin 411 (Pan Biotech) supplemented with penicillin (100 U/mL), streptomycin (100 μg/mL).
The cells were split approximately 1:3 the day before stimulation. The stimulation procedure was performed in three steps. The first step was pre-dilution of test substances, to double the final concentration, in cell culture medium. Furthermore, Interferon-γ (IFN-γ) (100 U, PreproTech) was added in the cell culture media for 24 or 48 hours during stimulation of cells with test substances. The number of cells was then determined by trypan blue exclusion and the cells were diluted to twice the final test concentration (2×10^6 cells/mL) if not otherwise indicated and 100 μl of cell suspension was added per well in 96 well tissue culture plates (Corning). Finally, a 100 μl of pre-diluted test substance (triplicate cultures) was added to the tissue culture plates. […] The stimulated cells were cultured at 37° C., 5% CO2, for 24 or 48 hours. The cell suspension was transferred to new cell culture plates and stored at −20° C. until analyzed. Thereafter the cell suspension was analyzed for presence of neopterin and IL-10 by ELISA (IBL-Hamburg) following the manufacturers instructions.

The test system of a further experiment is MM6-cells. Put plainly: CPA: IL-10 levels of stimulated MM6 cells, ELISA. Particulars: 25-200 μg/ml; 48 hours; with IFN-γ 100 U/ml.
Source text: as §1, with “levels. […]” for “levels.”
The cells were split approximately 1:3 the day before stimulation. […] The number of cells was then determined by trypan blue exclusion and the cells were diluted to twice the final test concentration (2×10^6 cells/mL) if not otherwise indicated and 100 μl of cell suspension was added per well in 96 well tissue culture plates (Corning). […] The cell suspension was transferred to new cell culture plates and stored at −20° C. until analyzed. Thereafter the cell suspension was analyzed for presence of neopterin and IL-10 by ELISA (IBL-Hamburg) following the manufacturers instructions.
Background: In an ELISA, binding on a coated surface is turned into a signal by an enzyme label.

Where [1] appears, read: proteins, RPMI+10% FCS, 24 hrs, with IFN-γ 100 U/ml, over the tested concentrations.

The source of these data is patent publication US20110053163A1, “Biomarker” (BIOVATOR TECHNOLOGIES AB, priority 2007, published 2011).

Like-named read-outs stand apart in the source and are kept apart here.

Turning to Lipopolysaccharide [LPS], the “neopterin response (in words)” value in the experiment on THP-1 cells is recorded as “Dose response was seen”.

With `Oc1ccccc1` [phenol, reference compound], the “neopterin response (in words)” value in the experiment with MonoMac-6 cells is listed as “induced a neopterin response above background levels”.

Take `O=[N+]([O-])c1ccc(Cl)c([N+](=O)[O-])c1` [DNCB, 2,4 Dinitrocholorobenzene, reference compound]: in the experiment with MonoMac-6 cells (RPMI+10% FCS, 24 hrs), the “neopterin release (in words)” value was “none of the chemicals tested induced any neopterin release above background levels”.

`CCOC(=O)c1ccc(N)cc1` [benzocaine, Benzocaine, reference compound]: the “neopterin response (in words)” value in the experiment on MonoMac-6 cells (chemical at 30 μg/ml, with IFN-γ, RPMI+10% FCS, 24 hrs) is given as “induced a neopterin response above background levels”.

For the compound gelatin, in the experiment with MM6-cells, the “IL-10 levels (in words)” value is given as “did not induce IL-10 above background levels”. The “neopterin response (in words)” value in the experiment on MonoMac-6 cells (setting [1]) is “did not induce any neopterin production above the background levels”.

Consider “Soy lectin: Lectin: glycine max (soy been) (Medicago), low potential of being allergenic”, for which the “neopterin response (in words)” value in the experiment with MonoMac-6 cells (6.6 μg/ml, RPMI+10% FCS, 24 hrs, with IFN-γ) is “did not induce any neopterin response above the levels of control cells”; in the experiment with MonoMac-6 cells (180 μg/ml, RPMI+10% FCS, 24 hrs, with IFN-γ), “comparable to the cellular response towards Ara h 2 at 6.6 μg/ml”; in the experiment with MonoMac-6 cells (setting [1]), “Weak cellular neopterin responce”; with MonoMac-6 cells (proteins, RPMI+10% FCS, 24 hrs, with IFN-γ 100 U/ml, over the tested concentrations, listed as soy lectin), “did not induce neopterin above background levels”.

Turning to `[Cl][Pt-2]([Cl])([Cl])([Cl])([Cl])[Cl].[NH4+].[NH4+]` [HCPt, Ammonium hexachloroplatinate, reference compound], the “neopterin release (in words)” value with MonoMac-6 cells (RPMI+10% FCS, 24 hrs) is listed as “none of the chemicals tested induced any neopterin release above background levels”.
